Patent publication US11649242B2, “Pyrrolopyrrole compositions as pyruvate kinase (PKR) activators” (FORMA Therapeutics, Inc., priority 2017, dated 2023)

Experiments:
Assay type in all cases: biochemical
[1] = biological target: PKR(wt) (Homo sapiens, UniProt P30613); experiment: Luminescence Assay Protocol (Kinase Glo Plus), PKR(Wt/without FBP); conditions: without FBP; for I - AC50 LUM KGP woFBP % Fold @ 1.54 μM mean / activation at 1.54 µM: compound 1.54 μM; for AC50: gmean, read-out: G - AC50 LUM KGP woFBP AC50 μM gmean; for H - AC50 LUM KGP woFBP MAX % FOLD mean / Emax: highest % fold increase at any concentration; for activation at 1.54 µM: read-out: I - AC50 LUM KGP woFBP % Fold @ 1.54 μM mean; for Emax: read-out: H - AC50 LUM KGP woFBP MAX % FOLD mean
Protocol: (§1) Example 47: PKR(Wt/without FBP), PKR(G332S/with FBP), PKR(R510Q/without FBP)
(§2) The phosphorylation of Adenosine-5′-diphosphate (ADP) by various mutants of PKR was determined by the Kinase Glo Plus Assay (Promega) in the presence or absence of FBP [D-Fructose-1,6-diphosphate; BOC Sciences, CAS: 81028-91-3] as follows. Unless otherwise indicated, all reagents were purchased from Sigma-Aldrich. All reagents were prepared in buffer containing 50 mM Tris-HCl, 100 mM KCl, 5 mM MgCl2, and 0.01% Triton X100, 0.03% BSA, and 1 mM DTT. Enzyme and PEP [Phospho(enol) pyruvic acid] were added at 2× to all wells of an assay-ready plate containing serial dilutions of test compounds or DMSO vehicle. Final enzyme concentrations for PKR(wt), PKR(R510Q), and PKR(G332S) were 0.8 nM, 0.8 nM, and 10 nM respectively. Final PEP concentration was 100 μM. The Enzyme/PEP mixture was incubated with compounds for 30 minutes at RT before the assay was initiated with the addition of 2×ADP [Adenosine-5′-diphosphate] and KinaseGloPlus. Final concentration of ADP was 100 μM. […] For assays containing FBP, that reagent is added at 30 μM upon reaction initiation. Reactions were allowed to progress for 45 minutes at RT until luminescence was recorded by the BMG PHERAstar FS Multilabel Reader. All compounds were tested in triplicate at concentrations ranging from 42.5 μM to 2.2 nM in 0.83% DMSO.
(§3) Luminescence values were converted to % Fold increase by normalizing to the average of the DMSO control and multiplying by 100. Max, min, slope and AC50 were determined by the standard four parameter fit algorithm of ActivityBase XE Runner. Compounds were evaluated with three parameters—AC50, MAX % Fold, and % Fold@1.54 μM (FIG. 1). The AC50 value for a compound is the concentration […] corresponding to the midway between the maximum and minimum values of the four parameter logistic curve fit (i.e., at which the % fold increase along the four parameter logistic curve fit is halfway between MAX % Fold and MIN % Fold (% Fold Midpoint)), MAX % Fold is the highest fold increase observed at any concentration of compound, and % Fold@1.54 μM is the fold increase at a compound concentration of 1.54 μM. The parameter % Fold@1.54 μM was selected to capture elements of both the AC50 and MAX % Fold and to provide a ranking based on both potency and effect. The compound concentration of 1.54 μM was chosen as one that can optimally differentiate the set of compounds based on the range of activities observed.
(§4) As set forth in Tables 6 and 7 below, AC50 values (columns A, D, G) are defined as follows: ≤0.1 μM (+++); >0.1 μM and ≤1.0 μM (++); >1.0 μM and ≤40 μM (+); >40 μM (0). Max % FOLD values (columns B, E, H) are defined as follows: ≤75% (+); >75% and ≤250% (++); >250% and ≤500% (+++). % Fold@1.54 μM values (columns C, F, I) are defined as follows: ≤75% (+); >75% and ≤250% (++); >250% and ≤500% (+++).

[2] = biological target: PKR(G332S) (Homo sapiens, UniProt P30613, G332S); experiment: Luminescence Assay Protocol (Kinase Glo Plus), PKR(G332S/with FBP); conditions: PKRG332S, with FBP; for AC50: gmean, read-out: A - AC50 LUM KGP FBP AC50 μM gmean; for activation at 1.54 µM: read-out: C - AC50 LUM KGP FBP % Fold @ 1.54 μM mean; for Emax: read-out: B - AC50 LUM KGP FBP MAX % FOLD mean
Protocol: as §1, §2, §3, §4

[3] = biological target: PKR(R510Q) (Homo sapiens, UniProt P30613, R510Q); experiment: Luminescence Assay Protocol (Kinase Glo Plus), PKR(R510Q/without FBP); conditions: PKRR510Q, without FBP; for AC50: gmean, read-out: D - AC50 LUM KGP woFBP AC50 μM gmean; for F - AC50 LUM KGP woFBP % Fold @ 1.54 μM mean / activation at 1.54 µM: compound 1.54 μM; for Emax / E - AC50 LUM KGP woFBP MAX % FOLD mean: highest % fold increase at any concentration; for Emax: read-out: E - AC50 LUM KGP woFBP MAX % FOLD mean; for activation at 1.54 µM: read-out: F - AC50 LUM KGP woFBP % Fold @ 1.54 μM mean
Protocol: as §1, §2, §3, §4

[4] = highest % fold increase at any concentration

PKR(R510Q), sequence (P30613 whole entry R510Q): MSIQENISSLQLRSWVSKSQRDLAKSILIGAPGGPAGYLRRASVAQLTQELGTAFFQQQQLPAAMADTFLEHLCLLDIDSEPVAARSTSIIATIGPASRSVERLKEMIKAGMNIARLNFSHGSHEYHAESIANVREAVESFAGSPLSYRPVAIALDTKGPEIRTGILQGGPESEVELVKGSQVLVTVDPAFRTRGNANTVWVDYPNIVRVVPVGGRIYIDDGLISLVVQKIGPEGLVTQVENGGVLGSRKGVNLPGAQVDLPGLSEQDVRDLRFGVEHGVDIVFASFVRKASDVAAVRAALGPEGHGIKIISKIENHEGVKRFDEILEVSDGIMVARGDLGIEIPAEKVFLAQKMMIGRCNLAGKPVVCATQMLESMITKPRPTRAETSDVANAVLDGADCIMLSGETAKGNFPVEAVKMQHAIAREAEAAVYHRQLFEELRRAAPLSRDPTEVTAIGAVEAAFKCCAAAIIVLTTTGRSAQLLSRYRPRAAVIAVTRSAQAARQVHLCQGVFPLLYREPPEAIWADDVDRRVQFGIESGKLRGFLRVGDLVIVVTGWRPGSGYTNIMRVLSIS
PKR(wt), sequence (P30613 whole entry): as the sequence (P30613 whole entry R510Q) above, with Q510R counted along it
PKR(G332S), sequence (P30613 whole entry G332S): as the sequence (P30613 whole entry R510Q) above, with G332S, Q510R counted along it

| Structure (SMILES) | I - AC50 LUM KGP woFBP % Fold @ 1.54 μM mean [1] | AC50 [1] | H - AC50 LUM KGP woFBP MAX % FOLD mean [1] | AC50 [2] | AC50 [3] | activation at 1.54 µM [1] | Emax [1] | activation at 1.54 µM ([2]; compound 1.54 μM) | Emax [2, 4] | F - AC50 LUM KGP woFBP % Fold @ 1.54 μM mean [3] | Emax [3] | C - AC50 LUM KGP FBP % Fold @ 1.54 μM mean ([2]; compound 1.54 μM) | B - AC50 LUM KGP FBP MAX % FOLD mean [2, 4] | E - AC50 LUM KGP woFBP MAX % FOLD mean [3] | activation at 1.54 µM [3] |
| --- | --- | --- | --- | --- | --- | --- | --- | --- | --- | --- | --- | --- | --- | --- | --- |
| O=C(C1CCCOC1)N1CC2=C(C1)CN(S(=O)(=O)c1cnc3c(c1)OCCO3)C2 (single isomer, unassigned) [Example 6, (S or R)-(5-((2,3-dihydro-[1,4]dioxino[2,3-b]pyridin-7-yl)sulfonyl)-3,4,5,6-tetrahydropyrrolo[3,4-c]pyrrol-2(1H)-yl)(tetrahydro-2H-pyran-3-yl)methanone] | ++ (>75% and ≤250% (++)) | 1 to 40 µM | ++ (>75% and ≤250% (++)) | > 40 µM | > 40 µM |  |  |  |  |  |  |  |  |  |  |
| O=C(C1CCCOC1)N1CC2=C(C1)CN(S(=O)(=O)c1ccc3c(c1)NCCO3)C2 (single isomer, unassigned) [Example 33, (S or R)-(5-((3,4-dihydro-2H-benzo[b][1,4]oxazin-6-yl)sulfonyl)-3,4,5,6-tetrahydropyrrolo[3,4-c]pyrrol-2(1H)-yl)(tetrahydro-2H-pyran-3-yl)methanone] |  | 1 to 40 µM |  | > 40 µM | 1 to 40 µM | 75 to 250% | 75 to 250% | 75 to 250% | 75 to 250% | ++ (>75% and ≤250% (++)) | 250 to 500% |  |  |  |  |
| O=C(C1CCCOC1)N1CC2=C(C1)CN(S(=O)(=O)c1ccc3c(c1)NCCO3)C2 (single isomer, unassigned) [Example 34, (R or S)-(5-((3,4-dihydro-2H-benzo[b][1,4]oxazin-6-yl)sulfonyl)-3,4,5,6-tetrahydropyrrolo[3,4-c]pyrrol-2(1H)-yl)(tetrahydro-2H-pyran-3-yl)methanone] | ++ (>75% and ≤250% (++)) | ≤ 0.1 µM | ++ (>75% and ≤250% (++)) | 0.1 to 1 µM | ≤ 0.1 µM |  |  |  |  | +++ (>250% and ≤500% (+++)) |  | ++ (>75% and ≤250% (++)) | ++ (>75% and ≤250% (++)) | +++ (>250% and ≤500% (+++)) |  |
| O=C(C(CO)c1ccccn1)N1CC2=C(C1)CN(S(=O)(=O)c1ccc(OC(F)F)cc1)C2 (single isomer, unassigned) [Example 41, (S or R)-1-(5-((4-(difluoromethoxy)phenyl)sulfonyl)-3,4,5,6-tetrahydropyrrolo[3,4-c]pyrrol-2(1H)-yl)-3-hydroxy-2-(pyridin-2-yl)propan-1-one] |  | ≤ 0.1 µM |  | ≤ 0.1 µM | ≤ 0.1 µM | 250 to 500% | 250 to 500% | 75 to 250% | 75 to 250% |  | 250 to 500% |  |  |  | 250 to 500% |
| O=C(C1CCCOC1)N1CC2=C(C1)CN(S(=O)(=O)c1ccccn1)C2 (single isomer, unassigned) [Example 44, (R or S)-(5-(pyridin-2-ylsulfonyl)-3,4,5,6-tetrahydropyrrolo[3,4-c]pyrrol-2(1H)-yl)(tetrahydro-2H-pyran-3-yl)methanone] |  | 1 to 40 µM | ++ (>75% and ≤250% (++)) | 1 to 40 µM | > 40 µM | 75 to 250% |  | 75 to 250% | 75 to 250% |  |  |  |  | ++ (>75% and ≤250% (++)) | 75 to 250% |
